Experimental data published in publication PMC10541190 (The Journal of Clinical Investigation, 2023).
“And” between values parts separate entries of the source, which are not always exact repeats. Equal values may be shown once. Read-outs that look alike come from different tables or passages of the source.

How the values were obtained:
[1] = system: SARS-CoV-2 (USA-WA1/2020); assay: microbe, parasite or virus in culture; type: cell-based; conditions: Severe acute respiratory syndrome coronavirus 2, Vero
[2] = system: SARS-CoV-2 (USA-WA1/2020); assay: microbe, parasite or virus in culture; type: cell-based; conditions: Severe acute respiratory syndrome coronavirus 2, Calu-3, read-out: EC50, SARS-CoV-2 infection
rVSV-SARS-CoV-2-S [3] = assay: microbe, parasite or virus in culture; type: cell-based; conditions: Severe acute respiratory syndrome coronavirus 2, Vero, read-out: EC50, rVSV-SARS-CoV-2-S infection
[4] = system: SARS-CoV-2 (USA-WA1/2020); assay: microbe, parasite or virus in culture; type: cell-based; conditions: Severe acute respiratory syndrome coronavirus 2, read-out: EC50, nucleocapsid transcript expression by RT-qPCR
VEEV (TC-83) [5] = assay: microbe, parasite or virus in culture; type: cell-based; conditions: Venezuelan equine encephalitis virus, U-87 MG, read-out: EC50, VEEV (TC-83) infection
VEEV (TrD) [6] = assay: microbe, parasite or virus in culture; type: cell-based; conditions: Venezuelan equine encephalitis virus, U-87 MG, read-out: EC50, VEEV (TrD) infection
DENV2 [7] = assay: microbe, parasite or virus in culture; type: cell-based; conditions: Dengue virus, DENV2, Huh-7, read-out: EC50, DENV2 replication
EBOV (Kikwit isolate) = assay: microbe, parasite or virus in culture; type: cell-based; conditions: Zaire ebolavirus, Huh-7, read-out: EC50, EBOV replication
[8] = system: MPOXV 2003 and MPOXV 2022; assay: microbe, parasite or virus in culture; type: cell-based; conditions: Monkeypox virus, A549, read-out: EC50, monkeypox replication
VEEV (TC-83) [9] = type: cell-based
DENV2 [10] = type: cell-based
VEEV (TrD) [11] = type: cell-based
ErbB2 (HER2) = ErbB2 (HER2) (Homo sapiens, UniProt P04626); assay: biochemical; conditions: read-out: ErbB2 activity (%)
Sequence of ErbB2 (HER2) (P04626 23-1255): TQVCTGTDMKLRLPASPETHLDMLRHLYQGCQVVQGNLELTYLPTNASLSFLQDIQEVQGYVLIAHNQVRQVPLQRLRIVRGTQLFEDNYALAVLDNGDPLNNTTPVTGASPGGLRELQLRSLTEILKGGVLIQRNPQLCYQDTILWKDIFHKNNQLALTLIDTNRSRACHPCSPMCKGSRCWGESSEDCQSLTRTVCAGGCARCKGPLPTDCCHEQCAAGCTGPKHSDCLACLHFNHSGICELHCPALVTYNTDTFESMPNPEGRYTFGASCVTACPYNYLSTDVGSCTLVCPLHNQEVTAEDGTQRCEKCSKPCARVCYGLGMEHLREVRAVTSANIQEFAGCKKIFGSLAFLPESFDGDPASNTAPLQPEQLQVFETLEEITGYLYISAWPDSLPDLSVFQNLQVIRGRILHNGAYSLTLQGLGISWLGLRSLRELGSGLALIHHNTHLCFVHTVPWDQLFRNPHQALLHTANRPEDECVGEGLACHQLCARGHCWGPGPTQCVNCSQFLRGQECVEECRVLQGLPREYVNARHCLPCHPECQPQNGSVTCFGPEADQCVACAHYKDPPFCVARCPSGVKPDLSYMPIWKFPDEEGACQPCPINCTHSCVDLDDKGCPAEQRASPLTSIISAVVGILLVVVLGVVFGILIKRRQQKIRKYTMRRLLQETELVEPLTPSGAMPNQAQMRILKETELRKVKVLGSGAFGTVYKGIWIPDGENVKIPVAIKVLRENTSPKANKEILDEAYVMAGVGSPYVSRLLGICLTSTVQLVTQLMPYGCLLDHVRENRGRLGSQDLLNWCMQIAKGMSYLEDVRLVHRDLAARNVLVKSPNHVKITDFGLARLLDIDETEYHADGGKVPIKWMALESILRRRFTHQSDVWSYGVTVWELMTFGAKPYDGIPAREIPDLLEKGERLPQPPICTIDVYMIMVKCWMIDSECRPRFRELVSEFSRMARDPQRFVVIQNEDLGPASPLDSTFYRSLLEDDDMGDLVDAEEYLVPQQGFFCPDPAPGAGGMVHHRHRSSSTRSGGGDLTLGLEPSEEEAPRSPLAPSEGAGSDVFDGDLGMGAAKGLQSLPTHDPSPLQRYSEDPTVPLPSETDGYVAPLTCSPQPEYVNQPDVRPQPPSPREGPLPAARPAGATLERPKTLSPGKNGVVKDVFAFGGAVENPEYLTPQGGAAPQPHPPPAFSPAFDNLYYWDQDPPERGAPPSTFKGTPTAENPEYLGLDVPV

ErbB4 [12] = target: ErbB4 (Homo sapiens, UniProt Q15303); assay: biochemical; conditions: read-out: ErbB4 activity (%)
Sequence of ErbB4 (Homo sapiens, UniProt Q15303) (Q15303 26-1308): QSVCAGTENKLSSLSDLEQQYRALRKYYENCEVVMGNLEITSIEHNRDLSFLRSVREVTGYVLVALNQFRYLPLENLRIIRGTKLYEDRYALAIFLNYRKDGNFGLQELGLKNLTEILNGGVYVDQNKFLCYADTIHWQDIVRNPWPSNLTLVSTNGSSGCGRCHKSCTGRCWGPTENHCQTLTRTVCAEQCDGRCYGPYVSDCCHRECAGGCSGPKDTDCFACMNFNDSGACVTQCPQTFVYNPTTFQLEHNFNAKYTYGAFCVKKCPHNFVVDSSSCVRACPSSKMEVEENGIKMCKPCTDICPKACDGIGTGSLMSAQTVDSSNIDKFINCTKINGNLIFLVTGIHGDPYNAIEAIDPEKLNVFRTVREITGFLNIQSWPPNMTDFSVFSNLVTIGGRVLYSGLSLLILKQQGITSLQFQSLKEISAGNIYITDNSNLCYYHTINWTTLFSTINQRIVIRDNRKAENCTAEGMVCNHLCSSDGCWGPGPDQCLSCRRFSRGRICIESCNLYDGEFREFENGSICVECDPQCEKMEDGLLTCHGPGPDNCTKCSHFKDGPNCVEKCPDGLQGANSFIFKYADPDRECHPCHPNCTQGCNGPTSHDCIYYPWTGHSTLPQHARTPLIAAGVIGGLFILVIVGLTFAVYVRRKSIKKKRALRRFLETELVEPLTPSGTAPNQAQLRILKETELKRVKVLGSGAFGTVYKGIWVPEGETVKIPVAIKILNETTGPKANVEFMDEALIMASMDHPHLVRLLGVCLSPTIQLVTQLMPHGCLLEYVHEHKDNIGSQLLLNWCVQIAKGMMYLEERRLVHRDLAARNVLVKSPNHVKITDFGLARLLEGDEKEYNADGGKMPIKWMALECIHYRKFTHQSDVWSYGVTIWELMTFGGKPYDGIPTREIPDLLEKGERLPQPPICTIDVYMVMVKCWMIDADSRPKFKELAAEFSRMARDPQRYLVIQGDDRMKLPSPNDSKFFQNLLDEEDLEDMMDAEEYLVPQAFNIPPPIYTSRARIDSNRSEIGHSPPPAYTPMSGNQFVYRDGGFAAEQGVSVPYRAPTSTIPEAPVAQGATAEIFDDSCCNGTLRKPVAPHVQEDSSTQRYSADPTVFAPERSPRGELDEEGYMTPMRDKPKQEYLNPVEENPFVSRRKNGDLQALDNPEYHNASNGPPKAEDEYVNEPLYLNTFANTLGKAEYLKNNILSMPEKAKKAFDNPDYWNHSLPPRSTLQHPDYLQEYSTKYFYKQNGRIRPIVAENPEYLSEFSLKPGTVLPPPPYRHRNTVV

SARS-CoV-2 [13] = type: cell-based
rVSV-SARS-CoV-2-S [14] = type: cell-based
SARS-CoV-2 [15] = type: cell-based; remark: listed apart in the source
ErbB2 = ErbB2 (Homo sapiens, UniProt P04626); type: cell-based
Sequence of ErbB2 (P04626 23-1255): as the sequence (P04626 23-1255) above

ACE2 = type: cell-based, human
AKT, ERK, and p38 MAPK = type: cell-based, human
ErbB4 [16] = type: cell-based
[17] = system: claudin-7 tight junctions; type: cell-based, human
[18] = system: SARS-CoV-2 (USA-WA1/2020); type: cell-based
Vero cells = conditions: African green monkey
Calu-3 cells = conditions: human, 1.25 µM
Huh7 cells = conditions: human
A549 cells = conditions: human
[19] = mouse, in vivo
[20] = system: brain microvascular endothelial cell monolayer
ErbB1 = conditions: cited from earlier work
[21] = system: SARS-CoV-2 main protease (Mpro); conditions: cited from earlier work
in vitro [22] = conditions: African green monkey
in vitro [23] = conditions: human, Cell viability (%)
in vitro [24] = conditions: human, Huh7 cell viability (%)
RAF1 = conditions: cited from earlier work
STK10 = conditions: cited from earlier work
RIPK2 = conditions: cited from earlier work
SLK = conditions: cited from earlier work
[25] = human, in vivo; cited from earlier work

CS(=O)(=O)CCNCc1ccc(-c2ccc3ncnc(Nc4ccc(OCc5cccc(F)c5)c(Cl)c4)c3c2)o1 [Lapatinib]
EC50 ([1]; 24 h, read-out: SARS-CoV-2 EC50): 500 nM
EC50 ([1]; read-out: EC50, SARS-CoV-2 infection): 500 nM
EC50 [2]: 700 nM
EC50 (rVSV-SARS-CoV-2-S [3]): 3200 nM
EC50 [4]: < 200 nM
EC50 (VEEV (TC-83) [5]): 1200 nM
EC50 (VEEV (TrD) [6]): 900 nM
EC50 (DENV2 [7]): 2000 nM
EC50 (EBOV (Kikwit isolate)): 2500 nM
EC50 [8]: 6200 to 7600 nM
replication of TC-83 (VEEV (TC-83) [9]): dose-dependently inhibited replication
replication of DENV2 (DENV2 [10]): dose-dependently inhibited replication
VEEV (TrD) replication in vascular and brain sides of the gNVU (VEEV (TrD) [11]): suppressed VEEV (TrD) replication
activity at 0.001 µM (ErbB2 (HER2)): 91.6%
activity at 0.003 µM (ErbB2 (HER2)): 84.5%
activity at 0.009 µM (ErbB2 (HER2)): 64%
activity at 0.247 µM (ErbB2 (HER2)): 14%
activity at 2.222 µM (ErbB2 (HER2)): 3.4%
activity at 6.667 µM (ErbB2 (HER2)): 2.28%
activity at 20 µM (ErbB2 (HER2)): 2%
activity at […] (ErbB2 (HER2)): 27.2% and 45.3% and 6.63%
activity at 0.001 µM (ErbB4 [12]): 104%
activity at 0.003 µM (ErbB4 [12]): 93.7%
activity at 0.009 µM (ErbB4 [12]): 68.4%
activity at 0.247 µM (ErbB4 [12]): 17.5%
activity at 2.222 µM (ErbB4 [12]): 6.13%
activity at 6.667 µM (ErbB4 [12]): 3.13%
activity at 20 µM (ErbB4 [12]): 2.93%
activity at […] (ErbB4 [12]): 31.2% and 54.5% and 8.67%
suppression of viral infection (SARS-CoV-2 [13]): 98% and 75% and 99% and 84% and 57%
effect on rVSV-SARS-CoV-2-S infection when added upon or after virus binding (rVSV-SARS-CoV-2-S [14]): comparable effects
mean Manders' coefficient, colocalization of nucleocapsid and Rab7 (SARS-CoV-2 [15]): 0.33
number of nucleocapsid puncta per cell (SARS-CoV-2 [15]): significantly reduced
increase in cell surface level of ErbB2 (ErbB2): more than 2 fold
cell surface level of ACE2 in infected cells (ACE2): reversed the effect of SARS-CoV-2 infection
SARS-CoV-2-induced activation of AKT and ERK (1.5 and 24 hpi) and p38 MAPK (24 hpi) (AKT, ERK, and p38 MAPK): dramatically inhibited
antiviral effect on VEEV (TC-83) upon ectopic expression of WT ErbB4 (ErbB4 [16]): completely or partially reversed
claudin-7 morphology and alveolar-like architecture [17]: intact claudin-7 morphology
SARS-CoV-2 nucleocapsid staining (confocal IF) [18]: near-complete disappearance
CC50 (Vero cells): > 20000 nM
Calu-3 cell viability (%) (Calu-3 cells): 85.68%
Huh7 cell viability (%) (Huh7 cells; 1.111 µM): 102.98%
Huh7 cell viability (%) (Huh7 cells; 10 µM): 86.28%
A549 viability (%) (A549 cells): 103.13%
tolerability [19]: good tolerability
barrier integrity (FITC-dextran permeability) [20]: maintained barrier integrity
% of control, ErbB1 (ErbB1): 5.3 nM 0%
effect on SARS-CoV-2 main protease (Mpro) [21]: inhibits
CC50 (in vitro [22]): > 20000 nM
viability at 6.67 µM (in vitro [22]; Cell viability (%)): 86.8%
viability at 20 µM (in vitro [22]; Cell viability (%)): 64%
viability at 20 µM (in vitro [22]; Vero cell viability (%)): 85%
viability at 20 µM (in vitro [23]): 68.5%
viability at 0.37 µM (in vitro [24]): 103%
viability at 3.333 µM (in vitro [24]): 105%
Other targets: RAF1 (% of control) (RAF1): RAF1 (0%), STK10 (1.4%), RIPK2 (6.1%), MAP2K5 (12%), SLK (18%)
Other targets: STK10 (% of control) (STK10): RAF1 (0%), STK10 (1.4%), RIPK2 (6.1%), MAP2K5 (12%), SLK (18%)
Other targets: RIPK2 (% of control) (RIPK2): RAF1 (0%), STK10 (1.4%), RIPK2 (6.1%), MAP2K5 (12%), SLK (18%)
Other targets: SLK (% of control) (SLK): RAF1 (0%), STK10 (1.4%), RIPK2 (6.1%), MAP2K5 (12%), SLK (18%)
estimated incidence of pneumonitis, interstitial lung disease or lung fibrosis [25]: 0.2%
